The record followed here is ChEMBL document CHEMBL4396894, “The photodynamic activities of dimethyl 131-[2-(guanidinyl)ethylamino] chlorin e6 photosensitizers in A549 tumor” (Eur J Med Chem, 2019).

Activity calls are given as the source filed them. No cut-off for these calls is given here.

Data set [1] concerns A549. The data set is described as follows: Photodynamic antitumor activity against human A549 cells xenografted in BALB/c nude mouse assessed as increase in necrosis at 0.15 mg/kg, iv irradiated with laser light at 120 J/cm2 measured 24 hrs post light irradiation by TUNEL staining based histological analysis. The class given is functional, organism-based.
Data set [2] has as its system A549. Briefly: Induction of intracellular ROS generation in human A549 cells at 1 uM preincubated for 4 hrs followed by compound washout measured under 650 nanometer laser light irradiation at 2 J/cm2 by DCFDA dye-based fluorescence microscopic analysis. The class given is functional, cell-based.
The test system of data set [3] is A549. The data set is described as follows: Photodynamic antitumor activity against human A549 cells xenografted in BALB/c nude mouse assessed as increase in tumor tissue damage at 0.15 mg/kg, iv irradiated with laser light at 120 J/cm2 measured 24 hrs post light irradiation by H and E staining based histological analysis. The class given is functional, organism-based.

Data set [4] deals with A549. Briefly: Photodynamic cytotoxicity against human A549 cells assessed as reduction in cell viability preincubated for 24 hrs followed by compound washout and subsequent 650 nanometer laser light irradiation at 1 J/cm2 measured by MTT assay. The class given is functional, cell-based. The note with it: A549, light or radiation study.
The subject of data set [5] is A549. Briefly: Photodynamic antitumor activity against human A549 cells xenografted in BALB/c nude mouse assessed as increase in apoptosis at 0.15 mg/kg, iv irradiated with laser light at 120 J/cm2 measured 24 hrs post light irradiation by H and E staining based histological analysis. The class given is functional, organism-based.
Data set [6] in a line: Emission property of a compound in DMSO assessed as red shift at 5 uM by 3D fluorescence spectra analysis. Type of data set: physicochemical.
The subject of data set [7] is A549. The data set is described as follows: Dark toxicity in human A549 cells xenografted in BALB/c nude mouse assessed as reduction in tumor growth at 0.15 mg/kg, iv measured up to 14 days. Type of data set: organism-based. The note with it: in vivo, 336 h.
The nature of data set [8]: Drug localization in lysosome of human A549 cells at 1 uM after 4 hrs by lyso-tracker blue based laser confocal microscopic analysis. Type of data set: ADME, subcellular. The note with it: a549, 4 h.
The test system of data set [9] is A549. Briefly: Photodynamic cytotoxicity against human A549 cells assessed as reduction in cell viability preincubated for 24 hrs followed by compound washout and subsequent 650 nanometer laser light irradiation at 0.5 J/cm2 measured by MTT assay. The note with it: A549, light or radiation study. The class given is functional, cell-based.
The test system of data set [10] is A549. The data set is described as follows: Photodynamic cytotoxicity against human A549 cells assessed as reduction in cell viability preincubated for 24 hrs followed by compound washout and subsequent 650 nanometer laser light irradiation at 0.5 to 2 J/cm2 measured by MTT assay. The class given is functional, cell-based.
Data set [11] in a line: Induction of singlet oxygen generation in DMF solution assessed as singlet oxygen quantum yield irradiated with 650 nanometer laser light for 5 to 30 secs measured immediately by DPBF-based assay. The class given is functional.
Data set [12] deals with A549. Briefly: Photodynamic antitumor activity against human A549 cells xenografted in BALB/c nude mouse assessed as increase in necrosis at 0.15 mg/kg, iv irradiated with laser light at 120 J/cm2 measured 24 hrs post light irradiation by H and E staining based histological analysis. Type of data set: functional, organism-based.
For data set [13], the system named is A549. Briefly: Photodynamic antitumor activity against human A549 cells xenografted in BALB/c nude mouse assessed as decrease in tumor weight at 0.15 mg/kg, iv irradiated with laser light at 120 J/cm2 measured 13 days post light irradiation. Type of data set: functional, organism-based.
The nature of data set [14]: Drug localization in mitochondria of human A549 cells at 1 uM after 4 hrs by mito-tracker green based laser confocal microscopic analysis. The class given is ADME. The conditions noted are these: a549, 4 h.
A short description of data set [15]: Drug uptake in human A549 cells measured after 1 to 24 hrs by fluorescence spectrophotometry. Type of data set: ADME, cell-based.
Data set [16] in a line: Absorption property of the compound in DMSO assessed as maximum absorption wavelength at 1 to 20 uM by UV-Vis spectra analysis. Type of data set: physicochemical.
For data set [17], the system named is A549. Briefly: Dark toxicity in human A549 cells xenografted in BALB/c nude mouse assessed as increase in limb tumor tissue damage at 0.15 mg/kg, iv measured 24 hrs post treatment by H and E staining based histological assay. Type of data set: organism-based. The conditions noted are these: in vivo.
Data set [18] can be described thus: Drug localization in endoplasmic reticulum of human A549 cells at 1 uM after 4 hrs by DiOC6(3) ER-tracker green based laser confocal microscopic analysis. The class given is ADME, subcellular. The conditions noted are these: a549, 4 h.
Data set [19] concerns A549. The data set is described as follows: Photodynamic antitumor activity against human A549 cells xenografted in BALB/c nude mouse assessed as tumor growth inhibition at 0.4 mg/kg, iv irradiated with laser light at 120 J/cm2 measured up to 14 days. The class given is functional. The note with it: A549, light or radiation study, 336 h, read-out: TGI.
In data set [20] the test system is A549. Briefly: Dark toxicity in human A549 cells xenografted in BALB/c nude mouse assessed as increase in limb tumor tissue damage at 0.15 mg/kg, iv measured 24 hrs post treatment by TUNEL staining based histological assay. Type of data set: organism-based. The conditions noted are these: in vivo.
The test system of data set [21] is A549. Briefly: Photodynamic antitumor activity against human A549 cells xenografted in BALB/c nude mouse assessed as decrease in tumor growth at 0.15 mg/kg, iv irradiated with laser light at 120 J/cm2 measured up to 14 days. Type of data set: functional, organism-based.
The test system of data set [22] is A549. The data set is described as follows: Photodynamic antitumor activity against human A549 cells xenografted in BALB/c nude mouse assessed as increase in apoptosis at 0.15 mg/kg, iv irradiated with laser light at 120 J/cm2 measured 24 hrs post light irradiation by TUNEL staining based histological analysis. The class given is functional, organism-based.
Data set [23] in a line: Photobleaching property of the compound in DMSO at 10 uM irradiated with 650 nm laser light measured up to 90 mins by absorption spectra analysis.
Data set [24] concerns A549. Briefly: Dark toxicity in human A549 cells assessed as reduction in cell viability at 0.1 to 0.9 uM after 24 hrs by MTT assay. Type of data set: cell-based. The conditions noted are these: a549, 24 h.
For data set [25], the system named is A549. Briefly: Photodynamic antitumor activity against human A549 cells xenografted in BALB/c nude mouse assessed as increase in tumor tissue damage at 0.15 mg/kg, iv irradiated with laser light at 120 J/cm2 measured 24 hrs post light irradiation by TUNEL staining based histological analysis. Type of data set: functional, organism-based.
The subject of data set [26] is A549. Briefly: Photodynamic cytotoxicity against human A549 cells assessed as reduction in cell viability preincubated for 24 hrs followed by compound washout and subsequent 650 nanometer laser light irradiation at 2 J/cm2 measured by MTT assay. The class given is functional, cell-based. The conditions noted are these: A549, light or radiation study.
The subject of data set [27] is A549. The data set is described as follows: Photodynamic cytotoxicity against human A549 cells assessed as reduction in cell viability at 0.1 to 0.9 uM preincubated for 24 hrs followed by compound washout and subsequent 650 nanometer laser light irradiation at 0.5 to 2 J/cm2 measured by MTT assay. Type of data set: functional, cell-based.

As for `C=Cc1c(C)c2cc3nc(c(CC(=O)OC)c4[nH]c(cc5nc(cc1[nH]2)C(C)=C5CC)c(C)c4C(=O)NCCNC(=N)N)[C@@H](CCC(=O)OC)[C@@H]3C`, the outcome in data set [1], in data set [2], in data set [3], in data set [5], in data set [12] and in data set [13] was Active. Besides, the outcome in data set [21], in data set [22] and in [25] was Active. The IC50 was 886 nM in data set [4], 1260 nM in data set [9] and 545 nM in data set [26]. The Activity in [6] is 4 nm; in data set [7], “Non-Toxic”; in [10], “Dose-dependent effect”; in [11], 2.03; in data set [16], 403 to 664 nm; in data set [17], “Non-Toxic”. Moreover, the Activity result in data set [20] and in data set [24] was “Non-Toxic” in each case. Besides, the Drug uptake result in [8], in data set [14], in data set [15] and in data set [18] was “Active” in each case. For the same compound, the inhibition in vivo at 0.4 mg/kg in data set [19] was 100%. Further, the outcome in data set [23] was inactive.

For the compound `Oc1cccc(-c2c3nc(c(-c4cccc(O)c4)c4ccc([nH]4)c(-c4cccc(O)c4)c4nc(c(-c5cccc(O)c5)c5ccc2[nH]5)CC4)C=C3)c1` [TEMOPORFIN], the IC50 was determined as 779 nM in data set [4], 1100 nM in [9] and 702 nM in data set [26]. The Activity entry in data set [7] was “Non-Toxic”; in data set [11], 0.47 to 0.48; in [24] it was “Non-Toxic”. The outcome in data set [27], in [13] and in data set [21] was Active.

Regarding `C=Cc1c(C)c2cc3nc(c(CC(=O)OC)c4[nH]c(cc5nc(cc1[nH]2)C(C)=C5CC)c(C)c4C(=O)NCCN/C(=N\C(=O)OC(C)(C)C)NC(=O)OC(C)(C)C)[C@@H](CCC(=O)OC)[C@@H]3C`, the result in data set [1], in [2], in data set [3], in [5], in data set [12] and in data set [13] was Active. Also, the outcome in [21], in data set [22] and in data set [25] was Active. In addition, the values for the 50% inhibitory concentration (IC50) in data set [4], in data set [9] and in data set [26] were 397 nM, 542 nM and 197 nM, respectively. Further, the Activity is 4 nm in data set [6]; “Non-Toxic” in [7]; “Dose-dependent effect” in [10]; 1.98 in data set [11]; 403 to 664 nm in data set [16]; “Non-Toxic” in data set [17]. For the same compound, the Activity entry in data set [20] and in [24] was “Non-Toxic” each time. In addition, the Drug uptake entry in data set [8], in data set [14], in [15] and in data set [18] was “Active” throughout. For the same compound, the inhibition in vivo at 0.4 mg/kg in data set [19] came out at 100%. Moreover, in [23], the result was inactive.
